Laboratory results reported in ChEMBL document CHEMBL1201862, “PubChem BioAssay data set” (2004).
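A five-concentration, 48-hour dose response in 96-well plates underlies each endpoint, interpolated linearly between surrounding concentrations. GI50 is the concentration that inhibits growth by half.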 The source made the active and inactive calls. Cut-off read from the data, not from the text of the source: active = GI50 up to about 1.1 µM and inactive = higher.

How the values were obtained:
Assay in all cases: NCI-60 cell line screen, 48 h
A498 = system: A498
A549 = system: A549
ACHN = system: ACHN
K562 = system: K562
LOX IMVI = system: LOX IMVI
MDA-N = system: MDA-N
OVCAR-4 = system: OVCAR-4
PC-3 = system: PC-3
RXF 393 = system: RXF 393
SF-268 = system: SF-268
SK-MEL-28 = system: SK-MEL-28
SK-MEL-5 = system: SK-MEL-5
SN12C = system: SN12C
SNB-19 = system: SNB-19
T47D = system: T47D
TK-10 = system: TK-10
U-251 = system: U-251
RPMI-8226 = system: RPMI-8226
SF-539 = system: SF-539

Measured: GI50

CC(CCC(=O)O)(c1ccc(O)cc1)c1ccc(O)cc1
inactive: A498 > 100 µM | A549 > 100 µM | ACHN > 100 µM | K562 > 100 µM | LOX IMVI > 100 µM | MDA-N > 100 µM | OVCAR-4 > 100 µM | PC-3 > 100 µM | RXF 393 > 100 µM | SF-268 > 100 µM | SK-MEL-28 > 100 µM | SK-MEL-5 > 100 µM | SN12C > 100 µM | SNB-19 > 100 µM | T47D > 100 µM | TK-10 > 100 µM | U-251 > 100 µM

O=c1c2nc3ccccc3c(=O)n2ncn1-c1ccccc1Cl
inactive: A498 > 100 µM | A549 > 100 µM | ACHN > 100 µM | K562 > 100 µM | LOX IMVI > 100 µM | MDA-N > 100 µM | OVCAR-4 > 100 µM | PC-3 > 100 µM | RPMI-8226 > 100 µM | SF-268 > 100 µM | SF-539 > 100 µM | SK-MEL-28 > 100 µM | SK-MEL-5 > 100 µM | SN12C > 100 µM | SNB-19 > 100 µM | T47D > 100 µM | TK-10 > 100 µM | U-251 > 100 µM

C=C(CCC(C(=O)O)C1CCC2(C)C3=C(CCC12C)C1(C)CCC(O)C(C)(C)C1CC3)C(C)C (stereo not given)
inactive: A498 29.9 µM | A549 17.1 µM | ACHN 44.7 µM | K562 14.2 µM | LOX IMVI 22 µM | MDA-N 86.7 µM | OVCAR-4 43.1 µM | PC-3 77.8 µM | RPMI-8226 19.9 µM | SF-268 34.4 µM | SF-539 > 100 µM | SK-MEL-28 33.3 µM | SK-MEL-5 33.7 µM | SN12C 44.6 µM | SNB-19 > 100 µM | T47D 58.1 µM | TK-10 > 100 µM | U-251 22 µM

CCOC(=O)CCc1c(C)nc2c(C)c3c([nH]c4ccc(Cl)cc43)c(C)c2c1O
inactive: A498 1.8 µM | A549 4.51 µM | ACHN 12.1 µM | LOX IMVI 10.9 µM | MDA-N 10.7 µM | OVCAR-4 6.89 µM | PC-3 4.19 µM | RXF 393 2.96 µM | SF-268 14.3 µM | SF-539 11.2 µM | SK-MEL-28 14.1 µM | SK-MEL-5 6.12 µM | SNB-19 9.59 µM | T47D 14.8 µM | TK-10 10.7 µM | U-251 11 µM

Cc1nc(N/N=C/c2ccccc2Cl)[nH]c(=O)c1CCO
inactive: A549 > 100 µM | ACHN > 100 µM | K562 > 100 µM | LOX IMVI > 100 µM | MDA-N > 100 µM | OVCAR-4 87.3 µM | PC-3 > 100 µM | RPMI-8226 25.9 µM | RXF 393 25.9 µM | SF-268 33.5 µM | SF-539 77.4 µM | SK-MEL-28 73.8 µM | SK-MEL-5 > 100 µM | SN12C 47.4 µM | SNB-19 51.6 µM | T47D 24.8 µM | TK-10 76 µM | U-251 49.3 µM

O=C1CC(=O)NC(NN2C(=O)CSC2C(=O)c2ccco2)=N1 (stereo not given)
inactive: A498 > 100 µM | A549 > 100 µM | ACHN > 100 µM | K562 > 100 µM | MDA-N > 100 µM | OVCAR-4 > 100 µM | PC-3 > 100 µM | RPMI-8226 > 100 µM | RXF 393 > 100 µM | SF-268 > 100 µM | SF-539 > 100 µM | SK-MEL-28 > 100 µM | SK-MEL-5 > 100 µM | SN12C > 100 µM | T47D > 100 µM | TK-10 > 100 µM | U-251 > 100 µM

Cc1ccc(Cc2nn(C)c(=O)n2N)cc1
inactive: A498 > 100 µM | A549 > 100 µM | ACHN > 100 µM | K562 > 100 µM | LOX IMVI > 100 µM | MDA-N > 100 µM | OVCAR-4 > 100 µM | PC-3 > 100 µM | RPMI-8226 > 100 µM | SF-539 > 100 µM | SK-MEL-28 > 100 µM | SK-MEL-5 > 100 µM | SN12C > 100 µM | SNB-19 > 100 µM | T47D > 100 µM | TK-10 > 100 µM | U-251 > 100 µM

COc1cc(/C=N/n2c(C)n[nH]c2=O)cc(OC)c1OC
inactive: A498 23.4 µM | A549 > 100 µM | ACHN > 100 µM | K562 > 100 µM | MDA-N > 100 µM | OVCAR-4 > 100 µM | PC-3 > 100 µM | RXF 393 27.4 µM | SF-268 > 100 µM | SF-539 > 100 µM | SK-MEL-28 > 100 µM | SN12C > 100 µM | SNB-19 > 100 µM | T47D 71.3 µM | U-251 > 100 µM

O=C1OC2C=CCC1C2 (stereo not given)
inactive: A498 > 100 µM | A549 > 100 µM | ACHN > 100 µM | K562 > 100 µM | LOX IMVI > 100 µM | MDA-N > 100 µM | PC-3 > 100 µM | RPMI-8226 > 100 µM | SF-268 > 100 µM | SF-539 > 100 µM | SK-MEL-28 > 100 µM | SK-MEL-5 > 100 µM | SN12C > 100 µM | SNB-19 > 100 µM | T47D > 100 µM | TK-10 > 100 µM | U-251 > 100 µM

O=c1n(N=[S+]([O-])(c2ccccc2)c2ccccc2)c(=O)n2n1C1C=CC2CC1
inactive: A498 > 100 µM | A549 > 100 µM | ACHN > 100 µM | K562 > 100 µM | LOX IMVI > 100 µM | MDA-N > 100 µM | PC-3 > 100 µM | RPMI-8226 > 100 µM | SF-268 > 100 µM | SF-539 > 100 µM | SK-MEL-28 > 100 µM | SK-MEL-5 > 100 µM | SN12C > 100 µM | SNB-19 > 100 µM | T47D > 100 µM | TK-10 > 100 µM | U-251 > 100 µM

Cc1cn(C2CC(N/C(=N/C#N)NCC3OC(n4cnc5c(N)ncnc54)CC3O)C(CO)O2)c(=O)[nH]c1=O (stereo not given)
inactive: A498 > 100 µM | A549 > 100 µM | ACHN > 100 µM | K562 > 100 µM | LOX IMVI > 100 µM | MDA-N > 100 µM | OVCAR-4 > 100 µM | PC-3 > 100 µM | RXF 393 > 100 µM | SF-268 > 100 µM | SF-539 > 100 µM | SK-MEL-28 > 100 µM | SK-MEL-5 > 100 µM | SN12C > 100 µM | SNB-19 > 100 µM | T47D > 100 µM | TK-10 > 100 µM | U-251 > 100 µM

O=C(CSc1nc2ccc(I)cc2c(=O)n1Cc1ccccc1)NN1C(=O)CCC1=O
inactive: A549 49.4 µM | ACHN 18.2 µM | K562 33.3 µM | LOX IMVI 59.3 µM | MDA-N 83.4 µM | OVCAR-4 21.5 µM | PC-3 30.1 µM | RPMI-8226 37.7 µM | RXF 393 25.5 µM | SF-268 39.1 µM | SF-539 61.4 µM | SK-MEL-28 61.4 µM | SK-MEL-5 48.4 µM | SN12C 35.7 µM | SNB-19 85.3 µM | T47D 40 µM | TK-10 84.5 µM | U-251 41.2 µM

COC(=O)C1Cc2ccc3c(c2C1=O)CCCC3 (stereo not given)
inactive: A498 > 100 µM | A549 > 100 µM | ACHN > 100 µM | K562 22.2 µM | LOX IMVI 38.1 µM | MDA-N > 100 µM | OVCAR-4 > 100 µM | PC-3 26.2 µM | RPMI-8226 24.7 µM | SF-268 > 100 µM | SF-539 > 100 µM | SK-MEL-28 > 100 µM | SK-MEL-5 68.2 µM | SN12C > 100 µM | SNB-19 > 100 µM | T47D 23.2 µM | TK-10 > 100 µM | U-251 61.9 µM

COc1cc(Cc2cc3c(c(C(=O)O)c2Br)OCO3)cc(OC)c1OC
inactive: A498 > 100 µM | A549 > 100 µM | ACHN > 100 µM | K562 40.9 µM | LOX IMVI 83.8 µM | MDA-N 23.8 µM | OVCAR-4 > 100 µM | PC-3 > 100 µM | SF-539 29.6 µM | SK-MEL-28 > 100 µM | SK-MEL-5 51.1 µM | SN12C > 100 µM | SNB-19 > 100 µM | T47D > 100 µM | TK-10 > 100 µM | U-251 > 100 µM

O=C1CSC(c2cccc(Oc3ccccc3)c2)N1c1cc(Cl)ccc1Cl (stereo not given)
inactive: A498 32.6 µM | A549 48 µM | ACHN 24 µM | K562 19.4 µM | LOX IMVI 20 µM | MDA-N 17.6 µM | OVCAR-4 17.2 µM | PC-3 22.6 µM | RXF 393 18.5 µM | SF-268 19.7 µM | SF-539 19.1 µM | SK-MEL-28 29.5 µM | SK-MEL-5 16.5 µM | SN12C 19.5 µM | SNB-19 22.8 µM | T47D 21.7 µM | TK-10 25.5 µM | U-251 18.4 µM

O=C1CCCCC/C1=C\c1cccc(F)c1
inactive: A498 > 100 µM | A549 > 100 µM | ACHN 35.6 µM | K562 49.5 µM | MDA-N 62.5 µM | PC-3 > 100 µM | RPMI-8226 19.8 µM | RXF 393 > 100 µM | SF-268 82.4 µM | SF-539 > 100 µM | SK-MEL-28 > 100 µM | SK-MEL-5 66.7 µM | SN12C > 100 µM | SNB-19 > 100 µM | T47D > 100 µM | TK-10 62.5 µM | U-251 48.1 µM
